test: Direct solubility of the fluorescent dye in water; assay type: physicochemical; conditions: not given
Text: The fluorescent dyes obtained in Synthetic Examples 1 to 21 were each directly soluble in water. […] A stokes shift of 100 nm or more was obtained in all the synthesized fluorescent dyes. An absorption wavelength of 400 to 450 nm was obtained in the 4,7-diphenyl whereas an absorption wavelength of 500 nm or more and a fluorescence wavelength of 600 nm or more were obtained in the 4,7-thienyl. When the fluorescence intensity of Synthetic Example 22 was 1.0, a very high fluorescence intensity as much as 11.2 was obtained in Synthetic Example 1 and a very high fluorescence intensity as much as 6.0 was obtained in Synthetic Example 12.

| Compound | Direct solubility in water |
| --- | --- |
| active ester of 4,7-diphenyl-1,2,5-oxadiazolopyridine ethyl ester [Synthetic Example 22, reference compound] | could not be directly dissolved in water |

test: Measurement of a fluorescence spectrum (absorption and fluorescent wavelength, fluorescence intensity); assay type: physicochemical; conditions: dissolved in DMSO, concentration 10^-4 M
Experimental: Measurement of a Fluorescence Spectrum
Each of the synthesized fluorescent dyes was dissolved in a solvent by using DMSO to prepare a solution having a concentration of 10^−4 M, so that the measurements of fluorescent wavelength and absorption wavelength were performed.

| Compound | Absorption wavelength [nm] | Fluorescence wavelength [nm] | Stokes shift [nm] |
| --- | --- | --- | --- |
| O=C(CCCCC[n+]1cccc(/C=C/c2nc(-c3ccccc3)c3nsnc3c2-c2ccccc2)c1)ON1C(=O)CCC1=O [Synthetic Example 1] | 411 | 531 | 120 |
| COc1ccc(-c2nc(/C=C/c3ccc[n+](CCCCCC(=O)ON4C(=O)CCC4=O)c3)c(-c3ccc(OC)cc3)c3nonc23)cc1 [Synthetic Example 2] | 437 | 608 | 171 |
| Cc1csc(-c2c(-c3ccc[n+](CCC(=O)ON4C(=O)CCC4=O)c3)nc(-c3ccc(C)s3)c3nonc23)c1 [Synthetic Example 10] | 531 | 650 | 119 |
| Cc1csc(-c2c(-c3cc[n+](CCCCCC(=O)ON4C(=O)CCC4=O)cc3)nc(-c3ccc(C)s3)c3nonc23)c1 [Synthetic Example 11, active ester of 4,7-di(methylthienyl)-1,2,5-oxadiazolopyridine-6-(4-pyridinium)] | 528 | 648 | 120 |
| O=C(CCCCC[n+]1cccc(-c2nc(-c3ccccc3)c3nonc3c2-c2ccccc2)c1)ON1C(=O)CCC1=O [Synthetic Example 12] | 382 | 513 | 131 |
| O=C(CCCCC[n+]1ccc(-c2nc(-c3ccc(-c4ccc5ccccc5c4)s3)c3nonc3c2-c2cc(-c3ccc4ccccc4c3)cs2)cc1)ON1C(=O)CCC1=O [Synthetic Example 16, active ester of 4,7-di[(2-naphthyl)thienyl]-1,2,5-oxadiazolopyridine-6-(4-pyridinium)] | 516 | 682 | 166 |
| O=C(CCCCC[n+]1ccc(/C=C/c2nc(-c3ccc(-c4cccc5ccccc45)s3)c3nonc3c2-c2ccc(-c3cccc4ccccc34)s2)cc1)ON1C(=O)CCC1=O [Synthetic Example 18, active ester of 4,7-di[(1-naphthyl)thienyl]-1,2,5-oxadiazolopyridine-6-(4-vinylpyridinium)] | 535 | 700 | 165 |
| O=C(CCCCC[n+]1ccc(-c2nc(-c3ccc(-c4ccc(-c5ccccc5)cc4)s3)c3nonc3c2-c2cc(-c3ccc(-c4ccccc4)cc3)cs2)cc1)ON1C(=O)CCC1=O.[Br-] [Synthetic Example 20, active ester of 4,7-di[(2-biphenyl)thienyl]-1,2,5-oxadiazolopyridine-6-(4-pyridinium)] | 529 | 715 | 186 |
| active ester of 4,7-di(bromothienyl)-1,2,5-oxadiazolopyridine-6-(4-pyridine) [Synthetic Example 13] | 516 | 698 | 182 |
| active ester of 4,7-di(methylthienyl)-1,2,5-oxadiazolopyridine-6-(3-pyridinium) [Synthetic Example 9] | 539 | 660 | 121 |
| active ester of 4,7-di[(1-naphthyl)thienyl]-1,2,5-oxadiazolopyridine-6-(4-pyridinium) [Synthetic Example 15] | 532 | 722 | 190 |
| active ester of 4,7-di[(2-biphenyl)thienyl]-1,2,5-oxadiazolopyridine-6-(4-vinylpyridinium) [Synthetic Example 21] | 404 | 527 | 123 |
| active ester of 4,7-di[(2-bromo)thienyl]-1,2,5-oxadiazolopyridine-6-(4-vinylpyridinium) [Synthetic Example 17] | 509 | 688 | 179 |
| active ester of 4,7-di[(2-naphthyl)thienyl]-1,2,5-oxadiazolopyridine-6-(4-vinylpyridinium) [Synthetic Example 19] | 533 | 730 | 197 |
| active ester of 4,7-di[(2-phenyl)thienyl]-1,2,5-oxadiazolopyridine-6-(4-pyridinium) [Synthetic Example 14] | 500 | 710 | 210 |

same assay, conditions: fluorescence intensity of Synthetic Example 22 was 1.0

| Compound | Fluorescence intensity relative to Synthetic Example 22 |
| --- | --- |
| O=C(CCCCC[n+]1cccc(/C=C/c2nc(-c3ccccc3)c3nsnc3c2-c2ccccc2)c1)ON1C(=O)CCC1=O [Synthetic Example 1] | 11.2 |
| O=C(CCCCC[n+]1cccc(-c2nc(-c3ccccc3)c3nonc3c2-c2ccccc2)c1)ON1C(=O)CCC1=O [Synthetic Example 12] | 6.0 |
| active ester of 4,7-diphenyl-1,2,5-oxadiazolopyridine ethyl ester [Synthetic Example 22, reference compound] | 1.0 |

Reference: patent publication US9091692B2, “Fluorescent dye” (SHINICHIRO ISOBE, priority 2011, dated 2015)
